{
  "source": "patent US9295735B2",
  "about": "“Liposomal composition for convection-enhanced delivery to the central nervous centre” (MEDGENESIS THERAPEUTIX, INC., priority 2008, dated 2016)",
  "key": {"[1]": {"system": "various malignant glioma cells lines", "details": "read-out: 50% inhibitory concentration (IC50), cited from earlier work"}, "[2]": {"assay": "Brain tissue pharmacokinetics of Ls-TPT formulations and free topotecan after intracerebral CED (HPLC of total topotecan)", "format": "in vivo, Sprague-Dawley rats", "description": "The experiments in this example were performed with research grade material of both liposomal-topotecan (Ls-TPT) and liposomal gadodiamide (Ls-GD). Topotecan (TPT) for free topotecan formulation and for Ls-TPT preparation was obtained from Hisun Pharmaceuticals (Taizhou City, Zhejiang, China). Ls-TPT was provided by Northern Lipids Inc (Burnaby, BC, Canada). In brief, liposomes were composed of distearoylphosphatidylcholine (DSPC), distearoylphosphatidylglycerol (DSPG), and cholesterol at a 7:2:1 molar ratio with 75 to 90 nm target size. Topotecan was remotely loaded (actively encapsulated) into liposomes in response to a transmembrane pH gradient using internal and external buffers consisting of ammonium sulfate 250 mM pH 5.5 and histidine 5 mM/NaCl 145 mM pH 6.0 respectively. Topotecan concentrations of 0.67 and 2.0 mg/mL with a 0.1 and 0.3 (w/w) drug:lipid ratio were respectively targeted assuming a 90-95% drug encapsulation efficiency. A constant total lipid concentration target of 6.7 mg/mL was maintained in both formulations. The manufacturing process is described in details in Example 2.1.2.\nFor the formulation screening component of this example, the animals were divided in 4 groups based on Ls-TPT formulations or free topotecan as outlined in Table 1.\nRats were anesthetized with either isoflurane (5% for induction; 2.5 to 3.0% for maintenance during surgery) inhalation or a combination of ketamine (60 mg/kg) and xylazine (8 mg/kg) via an intraperitoneal injection. […] Craniectomy was performed using a small electric dental drill with 1-mm diameter burr holes, 0.5 mm anterior and 3 mm left and right from the bregma. […] The test article was injected bilaterally at one site into each striatum.\nThe brains were removed, placed on ice and the striata dissected using a dorsal approach and the tissue frozen in liquid nitrogen. The tissue was subsequently homogenized with an equal volume of water (1:1 v/v) and then extracted with methanol and stored at −70° C. until shipment to the Sponsor. Tail vein blood was collected (1.0 mL) for the formulation tissue and plasma pharmacokinetics component of this Example.\nHigh performance liquid chromatography (HPLC) of total topotecan (free and liposome-encapsulated) in brain tissue and in plasma was performed by Northern Lipids Inc. (Burnaby, BC, Canada) using an isocratic reversed phase HPLC/UV method. Method details were as follows. Briefly, the animals (n=3) were sacrificed at 1 and 6 hours, 2, 4 and 7 days. The brains were removed, placed on ice, the striata dissected using a dorsal approach and the tissue frozen in liquid nitrogen. Equal volume of ice cold water (1:1 w/w) was added and the thawed tissue was homogenized (Biospec) mechanically for 2 minutes and frozen."}, "[3]": {"details": "normal rat brain tissue after CED, non-compartmental analysis"}},
  "note": "Where two headings read alike, the source gives them in different places.",
  "data": [
    {"smiles": "CC[C@@]1(O)C(=O)OCc2c1cc1n(c2=O)Cc2cc3c(CN(C)C)c(O)ccc3nc2-1", "note": "[Formulation F4, topotecan]", "values": [
      {"measurement": "IC50", "setting": "[1]; exposure over 1 hour", "value": 2400, "unit": "nM"},
      {"measurement": "IC50", "setting": "[1]; exposure over 24 hours", "value": 38, "unit": "nM"},
      {"measurement": "IC50", "setting": "[1]; exposure over 72 hours", "value": 280, "unit": "nM"},
      {"measurement": "IC50", "setting": "[1]; exposure over 120 hours", "value": "≥ 20", "unit": "nM"},
      {"measurement": "concentration at 1 h", "setting": "[2]; Sprague-Dawley, brain (striatum), normal rat striatum, CED 20 μL per hemisphere, TPT 0.5 mg/mL, 1 hour, read-out: Topotecan brain tissue concentration, Mean ± STD", "value": "44.3 ± 39.4", "unit": "µM"},
      {"measurement": "concentration at 6 h", "setting": "[2]; Sprague-Dawley, brain (striatum), normal rat striatum, CED 20 μL per hemisphere, TPT 0.5 mg/mL, 6 hours, read-out: Topotecan brain tissue concentration, Mean ± STD", "value": "15.6 ± 13.8", "unit": "µM"},
      {"measurement": "concentration at 48 h", "setting": "[2]; Sprague-Dawley, brain (striatum), normal rat striatum, CED 20 μL per hemisphere, TPT 0.5 mg/mL, 48 hours, read-out: Topotecan brain tissue concentration, Mean ± STD", "value": 0, "unit": "nM"},
      {"measurement": "concentration at 96 h", "setting": "[2]; Sprague-Dawley, brain (striatum), normal rat striatum, CED 20 μL per hemisphere, TPT 0.5 mg/mL, 96 hours, read-out: Topotecan brain tissue concentration, Mean ± STD", "value": 0, "unit": "nM"},
      {"measurement": "concentration at 168 h", "setting": "[2]; Sprague-Dawley, brain (striatum), normal rat striatum, CED 20 μL per hemisphere, TPT 0.5 mg/mL, 168 hours, read-out: Topotecan brain tissue concentration, Mean ± STD", "value": 0, "unit": "nM"},
      {"measurement": "AUC(0-last)", "setting": "[2]; [3]", "value": 5.5, "unit": "µg·days/g"},
      {"measurement": "t1/2", "setting": "[2]; [3]", "value": "much shorter"},
      {"measurement": "Topotecan brain tissue concentration, Mean ± STD", "setting": "[2]; normal rat striatum, CED 20 μL per hemisphere, TPT 0.5 mg/mL, 1 hour", "value": "0.0203 ± 0.0181 mg/g of brain tissue"},
      {"measurement": "Topotecan brain tissue concentration, Mean ± STD", "setting": "[2]; normal rat striatum, CED 20 μL per hemisphere, TPT 0.5 mg/mL, 6 hours", "value": "0.0071 ± 0.0063 mg/g of brain tissue"},
      {"measurement": "Topotecan brain tissue concentration, Mean ± STD", "setting": "[2]; normal rat striatum, CED 20 μL per hemisphere, TPT 0.5 mg/mL, 48 hours", "value": "0 mg/g of brain tissue"},
      {"measurement": "Topotecan brain tissue concentration, Mean ± STD", "setting": "[2]; normal rat striatum, CED 20 μL per hemisphere, TPT 0.5 mg/mL, 96 hours", "value": "0 mg/g of brain tissue"},
      {"measurement": "Topotecan brain tissue concentration, Mean ± STD", "setting": "[2]; normal rat striatum, CED 20 μL per hemisphere, TPT 0.5 mg/mL, 168 hours", "value": "0 mg/g of brain tissue"}
    ]}
  ]
}
